In series [1] the target is T1, progesterone receptor (PR) (Homo sapiens, UniProt P06401).
T1 construct: alkaline phosphatase assay with the T47D human breast cancer cell line; endogenous in cells; host or cells: T47D
T1 sequence (P06401 1-933): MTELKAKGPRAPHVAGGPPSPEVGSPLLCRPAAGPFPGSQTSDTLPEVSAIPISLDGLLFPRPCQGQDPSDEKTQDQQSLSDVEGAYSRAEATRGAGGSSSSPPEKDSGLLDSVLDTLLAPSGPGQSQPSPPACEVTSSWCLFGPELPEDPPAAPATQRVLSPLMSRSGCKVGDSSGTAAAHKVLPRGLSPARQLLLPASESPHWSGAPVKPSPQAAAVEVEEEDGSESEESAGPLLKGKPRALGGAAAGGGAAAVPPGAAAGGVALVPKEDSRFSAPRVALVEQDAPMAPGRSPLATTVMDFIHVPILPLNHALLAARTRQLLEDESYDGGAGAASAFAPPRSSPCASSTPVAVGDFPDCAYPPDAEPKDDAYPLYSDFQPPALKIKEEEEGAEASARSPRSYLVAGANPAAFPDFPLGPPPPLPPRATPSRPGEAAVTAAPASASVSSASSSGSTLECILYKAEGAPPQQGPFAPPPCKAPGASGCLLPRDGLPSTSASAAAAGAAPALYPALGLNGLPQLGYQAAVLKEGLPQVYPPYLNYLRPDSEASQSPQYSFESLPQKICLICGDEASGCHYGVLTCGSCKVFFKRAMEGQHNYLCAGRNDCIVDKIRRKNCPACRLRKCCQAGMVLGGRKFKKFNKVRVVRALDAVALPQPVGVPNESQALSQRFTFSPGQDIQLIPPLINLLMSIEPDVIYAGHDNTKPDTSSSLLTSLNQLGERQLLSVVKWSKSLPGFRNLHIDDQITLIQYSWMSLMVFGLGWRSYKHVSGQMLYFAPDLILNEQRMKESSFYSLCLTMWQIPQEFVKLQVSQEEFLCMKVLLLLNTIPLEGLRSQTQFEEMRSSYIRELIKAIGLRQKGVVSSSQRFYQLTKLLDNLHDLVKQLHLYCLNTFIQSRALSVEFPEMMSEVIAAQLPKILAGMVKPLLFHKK
As to the kind of experiment: T47D alkaline phosphatase assay, PR antagonistic activity in the presence of 1 nM P4. It counts as cell-based. The settings on record: T47D cells, 1.0 nM P4, 48 h; mean ± SD from three independent experiments. Here is the method:
The PR agonistic and antagonistic activities of the synthesized phosphine–borane derivatives were evaluated using an alkaline phosphatase assay with the T47D human breast cancer cell line. […] The basal alkaline phosphatase activity was also not affected by the tested compounds alone. […] The PR antagonistic activities of the compounds were assessed in the presence of 1 nM of P4 (5). We also calculated the molecular volume of each compound to investigate the structure–activity relationship (SAR). Table 2 summarizes the PR antagonistic activity and calculated volumes of the synthesized compounds. […] We investigated the binding affinity of the compounds toward the PR ligand-binding domain (LBD) using a fluorescence polarization assay system. […] We also investigated the activity of compounds 28 and 34 toward the androgen receptor (AR) by means of cell-proliferation promoting/inhibitory activity toward androgen-dependent SC-3 cells. […].
T47D alkaline phosphatase assays were performed as previously described, with minor modifications. Briefly, the human breast cancer cell line T47D (HMS LINCS database Accession Numbers: 50541) was routinely cultivated in RPMI 1640 medium with 10% FBS at 37 °C in a 5% CO2 humidified incubator. The cells were plated in 96-well plates and incubated overnight in a 5% CO2 humidified incubator at 37 °C. The next day, the cells were treated with a fresh medium containing the test compound in the presence of 1 nM of progesterone and further incubated for 48 h. The medium was aspirated, and the cells were fixed with 100 μL of 1.8% formalin–PBS. The fixed cells were washed with PBS, and 100 μL of an assay buffer (1 mg/mL p-nitrophenol phosphate in diethanolamine water solution, pH 9.0) was added. The mixture was incubated at room temperature for 2 h under light-shielded conditions. The absorbance was measured at 405 nm using a DTX 880 Multimode Detector (Beckman Coulter, Brea, CA, USA). All data points were measured in triplicate, and IC50 values were calculated from three independent experiments.

Series [2] in a line: LogP (1-octanol/water partition coefficient) determined using HPLC. It counts as physicochemical. Here is the method: Hydrophobicity is a key determinant of the activity and pharmacokinetics of biologically active compounds, and the octanol–water partition coefficient (P) and logarithm value (LogP) are widely used hydrophobicity parameters. The LogP values of the synthesized compounds were determined using HPLC [45, 46]. Table 1 summarizes the experimentally determined LogP values and calculated values. […] From the viewpoint of the phosphine structure, an increase in the number of carbon atoms increased hydrophobicity in a predictable manner.
The 1-octanol/water partition coefficient P was determined using HPLC based on the OECD Guideline for Testing Chemicals. A COSMOSIL Packed Column 5C18-MS-II (5 μm, 150 mm × 4.6 mm id, Nacalai Tesque, Inc., Kyoto, Japan) was fitted on an HPLC instrument (Multiwavelength Detector, MD-2010 Plus. JASCO, Tokyo, Japan) equipped with a pump (PU-2080, JASCO) and an oven (SSC-2120, Senshu Scientific Co., Ltd., Tokyo, Japan). The injection volume was 20 µL; the mobile phase was methanol–water 75% (v/v); and the flow rate was 1.0 mL/min in all cases. Compounds were detected by measuring the UV absorption at 240 nm. The temperature of the column was kept at 40.0 (± 0.1) °C during the measurement. The measurement was performed in triplicate, and the mean value was calculated. The dead time t0 was measured with thiourea as the unretained compound, and the capacity factor k was calculated using the equation logk = log (tr − t0/t0), where tr represents the retention time of the compound. A calibration graph was determined experimentally using reference compounds (4-methylphenol, 4-chlorophenol, 4-phenylphenol, diphenylether, fluoranthene, and dichlorodiphenyltrichloroethane) with known logP values. The LogP values of phosphine–boranes were calculated based on a calibration graph (LogP = 2.6269 logkw + 3.059, R^2 = 0.9915).

Where [3] appears, read: HPLC, tentative value: hydrophobicity beyond the range of the reference compounds (1.9 < LogP < 6.5).

A value given as a limit tells only on which side of the number the result lay.

For the molecule `CCCC[P+]([BH2-]c1ccc(C(F)(F)F)cc1)(CCCC)CCCC` [Compound 35, B-4-(Trifluoromethyl)phenyl Tri-n-butylphosphine–Borane], the melting point lay in the range of 33.2 to 33.8 °C. Besides, the half-inhibitory concentration (IC50) in series [1] was more than 10 µM. Also, the chromatographic logP in series [2] (setting [3]) worked out at 7.5.
`FC(F)(F)c1ccc([BH2-][P+](C2CCCC2)(C2CCCC2)C2CCCC2)cc1` [Compound 36, B-4-(Trifluoromethyl)phenyl Tricyclopentylphosphine–Borane] yielded a melting point of 88 to 88.6 °C. Also, the IC50 in series [1] came to 2.63 ± 0.72 µM. The same molecule yielded a chromatographic logP in series [2] (setting [3]) of 7.95.
In turn, `FC(F)(F)c1ccc([BH2-][P+](C2CCCCC2)(C2CCCCC2)C2CCCCC2)cc1` [Compound 37, B-4-(Trifluoromethyl)phenyl Tricyclohexylphosphine–Borane] gave a melting point of 126.7 to 127 °C. Further, the IC50 in series [1] is more than 10 µM. This molecule came in with a chromatographic logP in series [2] (setting [3]) of 8.97.
With `CN(C)[P+]([BH2-]c1ccc(C(F)(F)F)cc1)(N(C)C)N(C)C` [Compound 39, B-4-(Trifluoromethyl)phenyl Tris(dimethylamino)phosphine–Borane], the melting point lay within 41.1 to 41.6 °C. In series [1], the IC50 turned out to be 1.4 ± 0.88 µM. Moreover, the chromatographic logP in series [2] (HPLC (OECD guideline), C18 column, methanol–water 75% (v/v), 40 °C, mean of triplicate) came out at 5.64.

What is called melting point is the temperature of the solid-liquid transition. For orientation: IC50 means the midpoint of a concentration-inhibition curve. Broadly, the chromatographic logP is lipophilicity estimated from chromatographic retention. Higher therefore signals a more lipophilic compound.

(Values after PMC11013038, “Design, Synthesis, and Evaluation of B-(Trifluoromethyl)phenyl Phosphine–Borane Derivatives as Novel Progesterone Receptor Antagonists” (Molecules, 2024).)
